Measurements as given in US12303541B2, “Erodium crassifolium L'Her plant extracts and uses thereof” (priority 2015, dated 2025).

System: IL-8
Test: IL-8 levels in TNF-α treated HaCaT cells (EE, fractions, pure compounds)
Format: cell-based, human
Details: for reduction of IL-8 levels by individual pure compounds: tested separately at the concentration present in comb-1, HaCaT
Protocol: After incubation, cell excitation was performed with recombinant human tumor necrosis factor-α (TNF-α, PeproTech, 300-01A, USA). Cultures in each well were treated with a final concentration of 50 ng/mL of TNFα and 50 μL plant extract. Three different controls were included in all experiments: (a) non-treated cells, with neither TNF-α nor plant extracts, (b) cells treated with TNF-α alone, (c) cells treated with TNF-α and the solvent (7% ethanol). The supernatant was collected, and the level of IL-8 was measured 16 h post-treatment using the commercial Human CXCL8/IL-8 DuoSet ELISA kit (R&D Systems, DY208-05, USA) according to the manufacturer's protocol. IL-8 is a common biomarker for inflammatory skin diseases. 16 h of TNF-α exposure induce IL-8 levels. Dexamethasone (Sigma-Aldrich, D4902, USA) was used as a positive control.

| Compound | reduction of IL-8 levels by individual pure compounds | IL-8, % of TNF-α activated cells (100 μM, HaCaT) | level of IL-8 (100 μM, TNF-α 50 ng/mL, 16 h, HaCaT) | IL-8 levels (17.6 μg/mL) | IL-8 reduction activity (all examined concentrations of pure standard) |
| --- | --- | --- | --- | --- | --- |
| catechin | inactive for reduction of IL-8 levels | – | – | – | – |
| C[C@@H]1C[C@H]2[C@@H]3CCC4=CC(=O)C=C[C@]4(C)[C@@]3(F)[C@@H](O)C[C@]2(C)[C@@]1(O)C(=O)CO [dexamethasone, Dexamethasone] | – | 59.4% | 104.0 ± 3.0 pg/mL | – | – |
| O=C(O)c1cc(O)c(O)c(O)c1 [gallic acid] | inactive for reduction of IL-8 levels | – | – | – | – |
| Oc1cc(O)c2c(c1)O[C@H](c1cc(O)c(O)c(O)c1)[C@H](O)C2 [EGC, (−)-Epigallocatechin] | inactive for reduction of IL-8 levels | – | – | led to increased IL-8 levels | None of the examined concentrations of pure standard EGC showed any significant IL-8 reduction activity |
